In US9708279B2, “2-acylaminothiazoles for the treatment of cancer” (UNIVERSITA′ DEGLI STUDI DI MILANO-BICOCCA, priority 2013, dated 2017):

test system: parental untransformed BaF3 cells; assay: Tritiated thymidine uptake cell proliferation assay, parental BaF3; format: cell-based; conditions: Mus musculus, BaF3, read-out: Parental IC50
Description: Tritiated Thymidine Uptake Cell Proliferation Assay
The parent untransformed BaF3 cells and ALK-negative cells are used as controls. Cells are seeded in U-bottomed 96-well plates at 10 000 cells/well in a volume of 100 μL in supplemented medium. In the case of the parent untransformed BaF3 cells, the medium is supplemented with IL-3. Serial dilutions of inhibitors are added to the appropriate wells and volumes adjusted to 200 μL. Controls were treated with the equivalent volume of vehicle, DMSO, alone. Plates are incubated at 37° C. for 72 h. ^3[H]-thymidine (1 μCiCi/well) is added for the last 8 h of incubation. Cells are harvested on to paper filters and ^3[H]-thymidine incorporation is measured using a β scintillation counter (1430 MicroBeta, Wallac, Turku, Finland). The 50% inhibitory concentration (IC50) is defined as the concentration of inhibitor, expressed in micromolar, that give a 50% decrease in ^3[H]-thymidine uptake compared with controls.

| SMILES | IC50 |
| --- | --- |
| CN1CCN(Cc2ccc(C(=O)Nc3nc(-c4cccc(C#Cc5ccccc5)c4)cs3)cc2)CC1 [Example 1, 4-((4-methylpiperazin-1-yl)methyl)-N-(4-(3-(phenylethynyl)phenyl)thiazol-2-yl)benzamide] | 4.7 µM |
| Cc1ccc(C#Cc2cccc(-c3csc(NC(=O)c4ccc(CN5CCN(C)CC5)cc4)n3)c2)cc1 [Example 2, 4-((4-methylpiperazin-1-yl)methyl)-N-(4-(3-(p-tolylethynyl)phenyl)thiazol-2-yl)benzamide] | 5.5 µM |
| COc1ccc(C#Cc2cccc(-c3csc(NC(=O)c4ccc(CN5CCN(C)CC5)cc4)n3)c2)cc1 [Example 3, N-(4-(3-((4-methoxyphenyl)ethynyl)phenyl)thiazol-2-yl)-4-((4-methylpiperazin-1-yl)methyl)benzamide] | 2.3 µM |
| Cc1ccc(-c2csc(NC(=O)c3ccc(CN4CCN(C)CC4)cc3)n2)cc1C#Cc1ccccc1 [Example 4, N-(4-(4-methyl-3-(phenylethynyl)phenyl)thiazol-2-yl)-4-((4-methylpiperazin-1-yl)methyl)benzamide] | 5.3 µM |
| Cc1ccc(C#Cc2cc(-c3csc(NC(=O)c4ccc(CN5CCN(C)CC5)cc4)n3)ccc2C)cc1 [Example 5, N-(4-(4-methyl-3-(p-tolylethynyl)phenyl)thiazol-2-yl)-4-((4-methylpiperazin-1-yl)methyl)benzamide] | 5.3 µM |
| Cc1ccc(-c2csc(NC(=O)c3ccc(CN4CCN(C)CC4)cc3)n2)cc1C#Cc1ccccc1C(F)(F)F [Example 7, N-(4-(4-methyl-3-((2-(trifluoromethyl)phenyl)ethynyl)phenyl)thiazol-2-yl)-4-((4-methylpiperazin-1-yl)methyl)benzamide] | 5 µM |
| COc1ccccc1C#Cc1cc(-c2csc(NC(=O)c3ccc(CN4CCN(C)CC4)cc3)n2)ccc1C [Example 8, N-(4-(3-((2-methoxyphenyl)ethynyl)-4-methylphenyl)thiazol-2-yl)-4-((4-methylpiperazin-1-yl)methyl)benzamide] | 1.5 µM |
| Cc1ccc(C#Cc2ccc(-c3csc(NC(=O)c4ccc(CN5CCN(C)CC5)cc4)n3)cc2C)cc1 [Example 10, N-(4-(3-methyl-4-(p-tolylethynyl)phenyl)thiazol-2-yl)-4-((4-methylpiperazin-1-yl)methyl)benzamide] | 3 µM |
| Cc1cc(-c2csc(NC(=O)c3ccc(CN4CCN(C)CC4)cc3)n2)ccc1C#Cc1ccccc1C(F)(F)F [Example 11, N-(4-(3-methyl-4-((2-(trifluoromethyl)phenyl)ethynyl)phenyl)thiazol-2-yl)-4-((4-methylpiperazin-1-yl)methyl)benzamide] | 3.2 µM |
| CN1CCN(Cc2ccc(C(=O)Nc3nc(-c4cccc(C#Cc5ccccc5C(F)(F)F)c4)cs3)cc2)CC1 [Example 12, 4-((4-methylpiperazin-1-yl)methyl)-N-(4-(3-((2-(trifluoromethyl)phenyl)ethynyl)phenyl)thiazol-2-yl)benzamide] | 1.8 µM |
| CN1CCN(Cc2ccc(C(=O)Nc3nc(-c4ccc(C#Cc5ccccc5C(F)(F)F)c(C#Cc5ccccc5C(F)(F)F)c4)cs3)cc2)CC1 [Example 13, N-(4-(3,4-bis((2-(trifluoromethyl)phenyl)ethynyl)phenyl)thiazol-2-yl)-4-((4-methylpiperazin-1-yl)methyl)benzamide] | 3.1 µM |
| Cc1ccc(-c2csc(NC(=O)c3ccc(CN4CCN(C)CC4)cc3)n2)cc1C#C[Si](C(C)C)(C(C)C)C(C)C [Example 14, N-(4-(4-methyl-3-((triisopropylsilyl)ethynyl)phenyl)thiazol-2-yl)-4-((4-methylpiperazin-1-yl)methyl)benzamide] | 7.8 µM |
| Cc1cc(-c2csc(NC(=O)c3ccc(CN4CCN(C)CC4)cc3)n2)ccc1C#C[Si](C(C)C)(C(C)C)C(C)C [Example 15, N-(4-(3-methyl-4-((triisopropylsilyl)ethynyl)phenyl)thiazol-2-yl)-4-((4-methylpiperazin-1-yl)methyl)benzamide] | 14 µM |
| CC(C)[Si](C#Cc1ccc(-c2csc(NC(=O)c3ccc(CN4CCN(C)CC4)cc3)n2)cc1C#C[Si](C(C)C)(C(C)C)C(C)C)(C(C)C)C(C)C [Example 16, N-(4-(3,4-bis((triisopropylsilyl)ethynyl)phenyl)thiazol-2-yl)-4((4-methylpiperazin-1-yl)methyl)benzamide] | > 50 µM |
| CC[Si](C#Cc1cccc(-c2csc(NC(=O)c3ccc(CN4CCN(C)CC4)cc3)n2)c1)(CC)CC [Example 17, 4-((4-methylpiperazin-1-yl)methyl)-N-(4-(3-((triethylsilyl)ethynyl)phenyl)thiazol-2-yl)benzamide] | 0.46 µM |
| CN1CCN(Cc2ccc(C(=O)Nc3nc(-c4cccc(C#C[Si](C)(C)C)c4)cs3)cc2)CC1 [Example 18, 4-((4-methylpiperazin-1-yl)methyl)-N-(4-(3-((trimethylsilyl)ethynyl)phenyl)thiazol-2-yl)benzamide] | 0.45 µM |
| CN1CCN(Cc2ccc(C(=O)Nc3nc(-c4cccc(C#CC5=CCCCC5)c4)cs3)cc2)CC1 [Example 19, N-(4-(3-(cyclohex-1-en-1-ylethynyl)phenyl)thiazol-2-yl)-4-((4-methylpiperazin-1-yl)methyl)benzamide] | 0.49 µM |
| CCCCC#Cc1cccc(-c2csc(NC(=O)c3ccc(CN4CCN(C)CC4)cc3)n2)c1 [Example 20, N-(4-(3-(hex-1-yn-1-yl)phenyl)thiazol-2-yl)-4-((4-methylpiperazin-1-yl)methyl)benzamide] | 7.3 µM |
| CN1CCN(Cc2ccc(C(=O)Nc3nc(-c4cccc(C#CCO[Si](c5ccccc5)(c5ccccc5)C(C)(C)C)c4)cs3)cc2)CC1 [Example 21, N-(4-(3-(3-((tert-butyldiphenylsilyl)oxy)prop-1-yn-1-yl)phenyl)thiazol-2-yl)-4-((4-methylpiperazin-1-yl)methyl)benzamide] | 12 µM |
| CC(C)[Si](OCC#Cc1cccc(-c2csc(NC(=O)c3ccc(CN4CCN(C)CC4)cc3)n2)c1)(C(C)C)C(C)C [Example 22, 4-((4-methylpiperazin-1-yl)methyl)-N-(4-(3-(3-((triisopropylsilyl)oxy)prop-1-yn-1-yl)phenyl)thiazol-2-yl)benzamide] | 8.5 µM |
| CN1CCN(Cc2ccc(C(=O)Nc3nc(-c4cccc(C#CCO[Si](C)(C)C(C)(C)C)c4)cs3)cc2)CC1 [Example 23, N-(4-(3-(3-((tert-butyldimethylsilyl)oxy)prop-1-yn-1-yl)phenyl)thiazol-2-yl)-4-((4-methylpiperazin-1-yl)methyl)benzamide] | 5.9 µM |
| CN1CCN(Cc2ccc(C(=O)Nc3nc(-c4cccc(C#C[Si](C)(C)C(C)(C)C)c4)cs3)cc2)CC1 [Example 24, N-(4-(3-((tert-butyldimethylsilyl)ethynyl)phenyl)thiazol-2-yl)-4-((4-methylpiperazin-1-yl)methyl)benzamide] | 2.4 µM |
| CN1CCN(Cc2ccc(C(=O)Nc3nc(-c4cccc(C#C[Si](c5ccccc5)(c5ccccc5)C(C)(C)C)c4)cs3)cc2)CC1 [Example 25, N-(4-(3-((tert-butyldiphenylsilyl)ethynyl)phenyl)thiazol-2-yl)-4-((4-methylpiperazin-1-yl)methyl)benzamide] | 12 µM |
| CC(C)[Si](C#Cc1cccc(-c2csc(NC(=O)c3ccc(-c4ccc(C(=O)N5CCN(C)CC5)cc4)o3)n2)c1)(C(C)C)C(C)C [Example 26, 5-(4-(4-methylpiperazine-1-carbonyl)phenyl)-N-(4-(3-((triisopropylsilyl)ethynyl)phenyl)thiazol-2-yl)furan-2-carboxamide] | 11 µM |
| CN1CCN(C(=O)c2ccc(-c3ccc(C(=O)Nc4nc(-c5cccc(C#C[Si](C)(C)C(C)(C)C)c5)cs4)o3)cc2)CC1 [Example 27, N-(4-(3-((tert-butyldimethylsilyl)ethynyl)phenyl)thiazol-2-yl)-5-(4-(4-methylpiperazine-1-carbonyl)phenyl)furan-2-carboxamide] | 2.3 µM |
| CC(C)[Si](OCC#Cc1cccc(-c2csc(NC(=O)c3ccc(-c4ccc(C(=O)N5CCN(C)CC5)cc4)o3)n2)c1)(C(C)C)C(C)C [Example 28, 5-(4-(4-methylpiperazine-1-carbonyl)phenyl)-N-(4-(3-(3-((triisopropylsilyl)oxy)prop-1-yn-1-yl)phenyl)thiazol-2-yl)furan-2-carboxamide] | 3.7 µM |
| CN1CCN(C(=O)c2ccc(-c3ccc(C(=O)Nc4nc(-c5cccc(C#Cc6ccccc6C(F)(F)F)c5)cs4)o3)cc2)CC1 [Example 29, 5-(4-(4-methylpiperazine-1-carbonyl)phenyl)-N-(4-(3-((2-(trifluoromethyl)phenyl)ethynyl)phenyl)thiazol-2-yl)furan-2-carboxamide] | 10 µM |
| CN1CCN(Cc2ccc(C(=O)Nc3nc(-c4cccc(C#CCOC(c5ccccc5)(c5ccccc5)c5ccccc5)c4)cs3)cc2)CC1 [Example 30, 4-((4-methylpiperazin-1-yl)methyl)-N-(4-(3-(3-(trityloxy)prop-1-yn-1-yl)phenyl)thiazol-2-yl)benzamide] | 10 µM |
| CN1CCN(Cc2ccc(C(=O)Nc3nc(-c4cccc(C#Cc5ccccc5F)c4)cs3)cc2)CC1 [Example 31, N-(4-(3-((2-fluorophenyl)ethynyl)phenyl)thiazol-2-yl)-4-((4-methylpiperazin-1-yl)methyl)benzamide] | 2.2 µM |
| CN1CCN(Cc2ccc(C(=O)Nc3nc(-c4cccc(C#Cc5ccc(F)cc5)c4)cs3)cc2)CC1 [Example 32, N-(4-(3-((4-fluorophenyl)ethynyl)phenyl)thiazol-2-yl)-4-((4-methylpiperazin-1-yl)methyl)benzamide] | 2.4 µM |
